According to patent publication US10253002B2, “Compounds and methods of treating infections” (Neoculi Pty Ltd., priority 2013, dated 2019):
Where two headings read alike, the source gives them in different places.

Legend:
[1] = test system: vancomycin-resistant Enterococcus spp. (VRE); assay: Broth microdilution MIC (CLSI), Example 1; assay type: cell-based; details: for MIC90: Enterococcus isolates of Table 4; for MIC: Enterococcus, VRE, read-out: MIC
Method: Cation adjusted Mueller Hinton Broth (CAMHB) was prepared using 100 mL sterile Mueller Hinton broth (pH adjusted). To each 100 mL volume, 125 μL of calcium stock solution (10 mg Ca^2+ per ml) and 43 μL magnesium stock solution (10 mg Mg^2+ per mL) was aseptically added. Sufficient broth is made up for daily use, with unused portions being stored at 4° C. overnight.
Potency was described as 1000 mg/g or 100%. The powder was dissolved in 10 mL DMSO and 1 mL volumes were aliquoted into eppendorf tubes and stored at −80° C.
Serial dilutions were prepared in 96 well plates were set up in a safety cabinet according to methods standard in the art. Briefly: 90 μL of the working antibiotic solution was added to each well in Column 12 of the plate, and mixed well, before 90 μL was transferred to column 11. The solutions were mixed again, and then transferred to the next column as before, continuing the dilutions through to column 3. Mixing the well requires the pick up and expulsion of 90 μL in each well 3-4 times before picking up and transferring the 90 μL to the next well. […] The trays were set up as follows: 2 strains were tested in duplicate in one tray, such that strain 1 was located in rows A to D, strain 2 was located in rows E to H, etc.
Fresh cultures of bacteria were prepared for testing on sheep blood agar (SBA), and overnight incubation at 37° C. as follows; 2-3 colonies of each strain in 7 mL sterile saline, and the OD600 measured as an indication of the density (approx. […] or 0.5 McFarland Standard). The bacterial suspension was adjusted to a final absorbance of 0.08 to 0.100, using saline to achieve correct density, and as the blank. Within 15 minutes of preparation, the adjusted bacterial suspension with sterile saline 1:20 (1 mL into 19 mL sterile saline) to achieve a final bacterial concentration of 4 to 5×10^6 CFU/mL. The bacterial solution was placed into a sterile trough and 10 μL of bacterial solution added into wells 2 through to 12 on each required row (dilution of 1:10, with final concentration of bacteria in wells=5×10^5 CFU/mL). The tray was sealed and incubated at 37° C. for 18-24 h. The purity of bacterial suspension was confirmed by streaking out 50 μL of the 1:20 dilution onto a SBA plate, which was incubated for 37° C. for 18 h and examined. Viable counts were carried out to ensure that the correct concentration of bacteria and been added to the wells. The diluted bacterial solution (4 to 5×10^6 CFU/mL) was diluted 1:10 downwards by adding 100 μL to 900 μL of sterile saline in sterile tubes, and the serial dilutions continued 1:10 for 5 tubes. 100 μL (4-5 drops) of the 4th and 5th dilutions (tube 4=105 and tube 5=10^6 CFU/ml) was plated around in duplicate on pre-dried PCA agar plates and incubated at 37° C. overnight. The following day the number of colonies on the plates was counted and the average count in 100 μL obtained. The study was multiplied by 10 to obtain a viable bacterial count per mL.
Minimum inhibitory concentrations (μg/mL) were determined using the broth microdilution method recommended by the Clinical and Laboratory Standards Institute (CLSI) (Methods for Dilution Antimicrobial Susceptibility Tests for Bacteria That Grow Aerobically; Approved Standard—Seventh Edition. CLSI M7-A7, 2006; Performance Standards for Antimicrobial Disk and Dilution Susceptibility Tests for Bacteria Isolated from Animals; Approved Standard—Second Edition. CLSI M31-A2, 2002; Performance Standards for Antimicrobial Susceptibility Testing; CLSI M2-A9, 2006).
MIC breakpoints were determined by visual assessment and then confirmed using an ELISA plate reader, measuring absorbance levels at 450 nm. Bacterial growth (turbidity) in the wells with antimicrobial was compared with the amount of growth (turbidity) in the growth-control well (containing no antimicrobial).

[2] = test system: S. aureus clinical isolates (MRSA and MSSA); assay: Broth microdilution MIC, Example 4; assay type: cell-based, Staphylococcus aureus
Method: Microtiter plates containing two-fold dilutions of each antimicrobial agent were inoculated with ˜10^5 CFU/ml of each isolate in a 100 μL final volume. Plates were incubated for 24 h at 37° C. Turbidity (absorbance at OD600) was measured using a Bio-Rad Benchmark Plus microplate spectrophotometer in Microplate Manager® version 5.2.1 (Bio-Rad). Minimum inhibitory concentration (MIC) endpoints were defined as the lowest antimicrobial concentration assessed by the spectrophotometer that inhibited bacterial growth. ATCC 49775 was included in the isolate collection as a control organism using breakpoints defined by the CLSI. The MIC50, MIC90 (concentrations that inhibited growth of the lower 50% and 90% of total organisms, respectively), and MIC range (minimum and maximum) were calculated to profile the antimicrobial susceptibility of the isolate collection.

Escherichia coli = assay: Broth microdilution MIC, Example 7 (NCL812 and analogues); assay type: cell-based

N=C(N/N=C/c1ccc(Cl)cc1)N/N=C/c1ccc(Cl)cc1 [NCL812, 1,3-bis[(E)-(4-chlorophenyl)methyleneamino]guanidine]
2 to 8 µg/mL: MICrange ([2]; Methicillin-susceptible staphylococci (n = 10)) | MICrange ([2]; Total bacterial isolates (n = 30))
2 to 4 µg/mL: MIC range ([1]; E. faecalis, 4 isolates) | MIC range ([1]; E. faecium, 16 isolates) | MICrange ([2]; CA-MRSA (n = 10))
>128 µg/mL: MIC (μg/ml) at 24 hours, E. coli (Escherichia coli; 24 hours, 1st and 2nd replicate rows) | MIC (Escherichia coli; E. coli, 1st) | MIC (Escherichia coli; E. coli, 2nd)
4 µg/mL: MIC90 ([1]; Test 1) | MIC90 ([1]; Test 2)
> 128 µg/mL: MIC (Escherichia coli; Escherichia coli, read-out: MIC (μg/ml) at 24 hours, E. coli, 24 hours, 1st and 2nd replicate rows) | MIC (Escherichia coli; Escherichia coli, read-out: MIC)
2 µg/mL: MIC ([1]; B09/2087, Test 1) | MIC ([1]; Enterococcus 011, Test 1) | MIC ([1]; Enterococcus 012, Test 1) | MIC ([1]; Enterococcus 012, Test 2) | MIC ([1]; Enterococcus 013, Test 1) | MIC ([1]; Enterococcus 013, Test 2) | MIC ([1]; VRE 001, Test 1) | MIC ([1]; VRE 001, Test 2) | MIC ([1]; VRE 003, Test 1) | MIC ([1]; VRE 003, Test 2) | MIC ([1]; VRE 005, Test 1) | MIC ([1]; VRE 005, Test 2) | MIC ([1]; VRE 006, Test 1) | MIC ([1]; VRE 006, Test 2)
